The numbers were not newly measured in paper PMC8435859 (Frontiers in Cellular and Infection Microbiology, 2021), which cites them from elsewhere.

The term Kd denotes the constant that tells how readily two partners part at equilibrium. By GI50 is commonly meant the concentration that inhibits growth by half.

Bounds are passed on as bounds.

For one series, the target named is tyrosinase. On the set-up: method as in Boissy RE, et al. Exp Dermatol, 2005, 14(8), 601-608. To be noted: reversible inhibition; ref Boissy RE, et al. Exp Dermatol, 2005, 14(8), 601-608; cited from earlier work.
A further series has as its system A549 cells. Also noted: method as in Li M, et al. Neurosci Lett. 2016. To be noted: vendor library annotation, ref Li M, et al. Neurosci Lett. 2016, read-out: LC50 (the source's name); cited from earlier work.
Series [1] deals with human adenovirus type 3 (HAdV-3). Also noted: method as in Li M, et al. Neurosci Lett. 2016. To be noted: HAdV-3 in A549 cells; vendor library annotation; ref Li M, et al. Neurosci Lett. 2016; cited from earlier work.
For another series, the target named is β-secretase (BACE1). Also noted: method as in Murakami, A., et al. Carcinogenesis 21(10), 1843-1850 (2000). To be noted: ref Murakami, A., et al. Carcinogenesis 21(10), 1843-1850 (2000); cited from earlier work.
In series [2] the target is 6-phosphogluconate dehydrogenase. On the set-up: method as in Ma X, et al. Pest Manag Sci, 2010, 66(7), 718-724. To be noted: ref Ma X, et al. Pest Manag Sci, 2010, 66(7), 718-724; cited from earlier work.
Series [3] has the same target. Also noted: method as in Ma X, et al. Pest Manag Sci, 2010, 66(7), 718-724. To be noted: ref Ma X, et al. Pest Manag Sci, 2010, 66(7), 718-724; cited from earlier work. The source holds these as a separate data set.
In a further series the test system is B16F10 cell. Also noted: method as in ref Abe F, Nagao T, Okabe H. Biological & Pharmaceutical Bulletin, 2002, 25(7):920-922. To be noted: ref Abe F, Nagao T, Okabe H. Biological & Pharmaceutical Bulletin, 2002, 25(7):920-922, read-out: GI50 against B16F10 cell; cited from earlier work.
In another series the test system is hepatitis B virus (HBV). Also noted: method as in Abdelwahed A, et al. Chem Biol Interact. 2007. To be noted: at a concentration of 4 microg/ml; library annotation; ref Abdelwahed A, et al. Chem Biol Interact. 2007; cited from earlier work.
The target in a further series is aldose reductase. To be noted: recombinant human aldose reductase; library annotation; ref Huang H et al., Journal of Agricultural and Food Chemistry, 2011; read-out: inhibition of recombinant human aldose reductase, IC5 value; cited from earlier work.
The next series concerns PGE2 release. Also noted: method as in ref Huang H et al., Journal of Agricultural and Food Chemistry, 2011. To be noted: library annotation; ref Huang H et al., Journal of Agricultural and Food Chemistry, 2011; cited from earlier work.
For another series, the system named is TRPA1. Also noted: method as in López-Jiménez et al., European Journal of Nutrition, 2013. To be noted: library annotation; ref López-Jiménez et al., European Journal of Nutrition, 2013; read-out: agonist of TRPA1, EC5 value; cited from earlier work.
In the next series the test system is cytochrome P450 1A1. Also noted: method as in Jo SP, Kim JK, Lim YH. Planta Med. 2014 Aug;80(13):1067-71. To be noted: mechanism-based, selective inactivator; ref Jo SP, Kim JK, Lim YH. Planta Med. 2014 Aug;80(13):1067-71; read-out: IC50, cytochrome P450 1A1 inactivation; cited from earlier work.
The subject of a further series is HL-60R. Also noted: method as in Jo SP, Kim JK, Lim YH. Planta Med. 2014 Aug;80(13):1067-71. To be noted: HL-60R cancer cell line; ref Jo SP, Kim JK, Lim YH. Planta Med. 2014 Aug;80(13):1067-71; read-out: IC50, proliferation of HL-60R; cited from earlier work.
The subject of another series is HepG2. Also noted: method as in Jo SP, Kim JK, Lim YH. Planta Med. 2014 Aug;80(13):1067-71. To be noted: HepG2 cancer cell line; ref Jo SP, Kim JK, Lim YH. Planta Med. 2014 Aug;80(13):1067-71; read-out: IC50, proliferation of HepG2; cited from earlier work.
A further series relates to STAT3. On the set-up: method as in Shin DS, et al. Cancer Res, 2009, 69(1), 193-202. To be noted: cell-free assay; ref Shin DS, et al. Cancer Res, 2009, 69(1), 193-202; cited from earlier work.
For the next series, the system named is STAT5. Also noted: method as in Shin DS, et al. Cancer Res, 2009, 69(1), 193-202. To be noted: ref Shin DS, et al. Cancer Res, 2009, 69(1), 193-202; cited from earlier work.
In the next series the test system is STAT1. On the set-up: method as in Shin DS, et al. Cancer Res, 2009, 69(1), 193-202. To be noted: ref Shin DS, et al. Cancer Res, 2009, 69(1), 193-202; cited from earlier work.
The test system of the next series is PTP1B. Also noted: method as in Xu F, Yang L, Huang X, et al. Mol Divers. To be noted: ref Xu F, Yang L, Huang X, et al. Mol Divers.; read-out: IC50, PTP1B inhibition; cited from earlier work.
Series [4] deals with nuclear factor of activated T cells (NFAT) transcription factor. Also noted: method as in Phan, C., et al. Biofactors, 2016. To be noted: vendor library annotation, ref Phan, C., et al. Biofactors, 2016; cited from earlier work.
For series [5], the system named is T. castaneum adults. Also noted: method as in Tao J, et al. Zhongguo Zhong Yao Za Zhi. 2011. To be noted: vendor library annotation, ref Tao J, et al. Zhongguo Zhong Yao Za Zhi. 2011; cited from earlier work.
A further series addresses lipase. Also noted: method as in Tao J, et al. Zhongguo Zhong Yao Za Zhi. 2011. To be noted: vendor library annotation, ref Tao J, et al. Zhongguo Zhong Yao Za Zhi. 2011, read-out: IC5 (lipase inhibitory activity); cited from earlier work.
For series [6], the system named is T. castaneum adults. On the set-up: method as in Tao J, et al. Zhongguo Zhong Yao Za Zhi. 2011. To be noted: 0.63 μg/cm, vendor library annotation, ref Tao J, et al. Zhongguo Zhong Yao Za Zhi. 2011; cited from earlier work.
Another series deals with HeLa cells. Also noted: method as in Wu ZT, et al. Acta Pharmacol Sin. 2014 Sep;35(9):1188-98. To be noted: ref Wu ZT, et al. Acta Pharmacol Sin. 2014 Sep;35(9):1188-98, read-out: IC50, autophagy followed by apoptotic cell death; cited from earlier work.
A further series deals with BT474 cells. Also noted: method as in Wu ZT, et al. Acta Pharmacol Sin. 2014 Sep;35(9):1188-98. To be noted: ref Wu ZT, et al. Acta Pharmacol Sin. 2014 Sep;35(9):1188-98, read-out: IC50, cellular response via inhibition of mTORC1 and induction of ER stress; cited from earlier work.
Another series concerns MDAMB231. On the set-up: method as in Wu ZT, et al. Acta Pharmacol Sin. 2014 Sep;35(9):1188-98. To be noted: ref Wu ZT, et al. Acta Pharmacol Sin. 2014 Sep;35(9):1188-98, read-out: IC50, cellular response via inhibition of mTORC1 and induction of ER stress; cited from earlier work.
The next series deals with cyclin-dependent kinases. To be noted: read-out: IC50, cyclin-dependent kinases; ref Hoessel R, et al. Nat Cell Biol, 1999, 1(1), 60-67; cited from earlier work.
Another series has as its system GSK-3β. To be noted: read-out: IC50, GSK-3β; ref Hoessel R, et al. Nat Cell Biol, 1999, 1(1), 60-67; cited from earlier work.
The subject of another series is fatty acid synthase. On the set-up: method as in Tian, WX. Current Medicinal Chemistry, 2006, 13 (8): 967–977. To be noted: ref Tian, WX. Current Medicinal Chemistry, 2006, 13 (8): 967–977; cited from earlier work.
The next series relates to seed germination. Also noted: method as in Kim T K, Park K S. Cytokine, 2015, 76(2). To be noted: at 3 mM concentration; ref Kim T K, Park K S. Cytokine, 2015, 76(2); cited from earlier work.

In the case of `Oc1ccc(OC2CCCCO2)cc1` (centres unmarked) [Deoxyarbutin], the IC50 at tyrosinase is 0.05 µM. Consider `CC(C)(O)[C@@H]1CC[C@](C)([C@H]2[C@@H](O)C[C@@]3(C)[C@@H]4C[C@H](O[C@@H]5O[C@H](CO)[C@@H](O)[C@H](O)[C@H]5O)[C@H]5C(C)(C)[C@@H](O[C@@H]6OC[C@@H](O)[C@H](O)[C@H]6O)CC[C@@]56C[C@@]46CC[C@]23C)O1` [Astragaloside IV], for which, in the series with A549 cells, the CC50 was 865 µM. Besides, the IC50 in series [1] is 23 µM. Consider `CC(C)=CCC/C(C)=C/COc1ccc2ccc(=O)oc2c1` [Auraptene], for which the IC50 on β-secretase (BACE1) is 345 µM.

As to `COc1cc(O)c2c(c1)C(=O)c1cc(C)cc(O)c1C2=O` [Rheochrysidin], in [2], the IC50 is 38.5 µM. Further, the Kd in series [3] was 26 µM. Regarding `C[C@@H]1OC(O[C@@H]2[C@@H](O)[C@H](OCCc3ccc(O)c(O)c3)O[C@H](CO[C@@H]3OC[C@@H](O)[C@H](O)[C@H]3O)[C@H]2OC(=O)/C=C/c2ccc(O)c(O)c2)[C@H](O)[C@H](O)[C@H]1O` (some centres unmarked) [Arenarioside], the GI50 in the series with B16F10 cell was 10 to 16 µM.

With `O=C(OC[C@H]1OC(OC(=O)c2cc(O)c(O)c(O)c2)[C@H](OC(=O)c2cc(O)c(O)c(O)c2)[C@@H](OC(=O)c2cc(O)c(O)c(O)c2)[C@@H]1OC(=O)c1cc(O)c(O)c(O)c1)c1cc(O)c(O)c(O)c1` (some centres unmarked) [1,2,3,4,6-O-Pentagalloylglucose], the “reduction of the HBsAg level” value in the series with hepatitis B virus (HBV) was 25%.

Consider `CC1OC(OC2C(=O)c3c(O)cc(O)cc3OC2c2ccc(O)cc2)C(O)C(O)C1O` (centres unmarked) [Engeletin], for which the IC50 on aldose reductase was 1.16 µM. The “inhibition of PGE2 release, IC5” value with PGE2 release is 19.6 µg/mL. With `CC(C)c1cc2c(c(O)c1O)[C@@]13CCCC(C)(C)[C@@H]1C[C@@H]2OC3=O` [Carnosol], in the series with TRPA1, the EC50 was 12.5 µM. Regarding Rhapontigenin, the IC50 with cytochrome P450 1A1 was 0.4 µM; in the series on HL-60R, 48 µM; in the series on HepG2, 48 µM. With `C[C@H]1COC2=C1C(=O)C(=O)c1c2ccc2c1CCCC2(C)C` [Cryptotanshinone], the IC50 in the series with STAT3 was 4.6 µM. Further, the “inhibition of STAT5” value in the series on STAT5 was “no inhibition”. In the series with STAT1, the “inhibition of STAT1” value is listed as “no inhibition”. With `C=C(C)[C@@H]1CC[C@]2(C)CC[C@]3(C)[C@H](CC[C@@H]4[C@@]5(C)CCC(=O)C(C)(C)[C@@H]5CC[C@]43C)[C@@H]12` [LUPENONE], the IC50 in the series on PTP1B was 15.1 µM. As to `COc1cc2oc(-c3ccccc3)cc(=O)c2c(O)c1O` [Negletein], the IC50 in series [4] was 3.89 µM. With `C/C=C/C#CC#C/C=C/c1ccco1` [Atractylodin], in the series on T. castaneum adults [5], the LD50 was 1.83 µg/cm. On lipase, the IC50 was 39.1 µM. The repellency with T. castaneum adults [6] was > 90%. Take `C[C@H]1CC[C@@]2(OC1)O[C@H]1C[C@H]3[C@@H]4CC[C@@H]5C[C@@H](O[C@@H]6O[C@H](CO)[C@H](O)[C@H](O)[C@H]6O[C@@H]6O[C@H](CO)[C@@H](O)[C@H](O)[C@H]6O)CC[C@]5(C)[C@H]4CC[C@]3(C)[C@H]1[C@@H]2C` [Timosaponin AIII]: the IC50 in the series with HeLa cells is 10 µM; in the series on BT474 cells it was 2.5 µM; in the series with MDAMB231 it was 6 µM. As to `O=C1Nc2ccccc2/C1=C1/Nc2ccccc2C1=O` [Indirubin], the values for the IC50 with cyclin-dependent kinases and in the series on GSK-3β were ~5 µM and ~0.6 µM, respectively. As to `O=c1c(O)c(-c2ccc(O)cc2O)oc2cc(O)cc(O)c12` [Morin], in the series on fatty acid synthase, the IC50 is 2.33 µM. On to `C[C@]1(OC(=O)/C=C/c2ccccc2)C[C@@H](O)[C@]2(O)C=CO[C@@H](O[C@@H]3O[C@H](CO)[C@@H](O)[C@H](O)[C@H]3O)[C@@H]21` [Harpagoside], for which the “inhibition of seed germination” value in the series with seed germination was 1. Harpagoside has anti-inflammatory activity. 2. Harpagoside at 3 mM concentration, shows moderate inhibition of seed germination. 3. Harpagoside can inhibit lipopolysaccharide-induced mRNA levels and protein expression of cyclooxygenase-2 and inducible nitric oxide in HepG2 cells.
